According to patent publication US8507509B2, “Saturated and insaturated bi- or tricyclic aryloxyacetamine derivatives and their use as fungicides” (Syngenta Crop Protection LLC, priority 2007, dated 2013):

Assays:
[1] = system: Septoria tritici; assay: Septoria tritici (leaf blotch), liquid culture growth inhibition in nutrient broth; type: cell-based; settings: Zymoseptoria tritici; 200 ppm; PDB broth, 24 C; inhibition of growth determined photometrically after 72 hrs; read-out: control of fungal infection, Septoria tritici
[2] = system: Erysiphe graminis f.sp. tritici; assay: Erysiphe graminis f.sp. tritici (wheat powdery mildew), wheat leaf segment assay, preventive; type: in vivo; settings: Blumeria graminis, foliar, 96 h; 200 ppm; wheat leaf segments; assessed four days after inoculation; read-out: control of fungal infection, Etysiphe graminis f.sp. tritici
[3] = system: Pythium ultimum; assay: Pythium ultimum (Damping off), liquid culture growth inhibition in potato dextrose broth; type: cell-based; settings: Globisporangium ultimum; 20 ppm; potato dextrose broth, 24° C.; inhibition of growth determined photometrically after 48 hours; read-out: control of fungal infection, Pythium ultimum
[4] = system: Plasmopara viticola; assay: Plasmopara viticola (downy mildew of grapevine), grapevine leaf disk assay, preventive; type: in vivo; settings: foliar, 168 h, 200 ppm, grapevine leaf disks, assessed seven days after inoculation, read-out: control of fungal infection, Plasmopara viticola
[5] = system: Phytophthora infestans; assay: whole plant or invertebrate; type: in vivo; settings: in Solanum lycopersicum, foliar, 96 h, read-out: control of fungal infection, Phytophthora infestans

Row | SMILES | inhibition of growth at 200 ppm [1] [%] | pest or weed control at 200 ppm [2] [%] | inhibition of growth at 20 ppm [3] [%] | pest or weed control at 200 ppm [4] [%] | pest or weed control at 200 ppm [5] [%]
1 | C=CCON=CC(C)(C)NC(=O)C(CC)Oc1cc(C)c2ncc(I)cc2c1 (centres unmarked) [Compound No. 7, N-(2-allyloxyimino-1,1-dimethyl-ethyl)-2-(3-iodo-8-methyl-quinolin-6-yloxy)-butyramide] | ≥ 60 | ≥ 60 | – | – | –
2 | C#Cc1cnc2c(C)cc(OC(CC)C(=O)NC(C)(C)C=NOC(C)(C)C)cc2c1 (centres unmarked) [Compound No. 137, N-(2-tert-Butoxyimino-1,1-dimethyl-ethyl)-2-(3-ethynyl-8-methyl-quinolin-6-yloxy)-butyramide] | ≥ 60 | ≥ 60 | – | – | –
3 | CON=CCC(C)(C)NC(=O)C(Oc1ccc2ncc(I)cc2c1)SC (centres unmarked) [Compound No. 92, 2-(3-iodo-quinolin-6-yloxy)-N-(3-methoxyimino-1,1-dimethyl-propyl)-2-methylsulfanyl-acetamide] | – | – | ≥ 60 | – | –
4 | CSC(Oc1ccc2ncc(Br)cc2c1)C(=O)NC(C)(C)C=NOCc1ccc(Cl)cc1 (centres unmarked) [Compound No. 9, 2-(3-Bromo-quinolin-6-yloxy)-N-[2-(4-chloro-benzyloxyimino)-1,1-dimethyl-ethyl]-2-methylsulfanyl-acetamide] | ≥ 60 | – | – | – | –
5 | CCCCON=CC(C)(C)NC(=O)C(Oc1cc(C)c2ncc(Br)cc2c1)SC (centres unmarked) [Compound No. 30, 2-(3-Bromo-8-methyl-quinolin-6-yloxy)-N-(2-butoxyimino-1,1-dimethyl-ethyl)-2-methylsulfanyl-acetamide] | ≥ 60 | – | – | – | –
6 | CSC(Oc1cc(C)c2ncc(Br)cc2c1)C(=O)NC(C)(C)C=NOCC(C)C (centres unmarked) [Compound No. 25, 2-(3-Bromo-8-methyl-quinolin-6-yloxy)-N-(2-isobutoxyimino-1,1-dimethyl-ethyl)-2-methylsulfanyl-acetamide] | ≥ 60 | – | – | – | –
7 | CSC(Oc1ccc2ncc(Br)cc2c1)C(=O)NC(C)(C)C=NOCC(C)C (centres unmarked) [Compound No. 18, 2-(3-Bromo-quinolin-6-yloxy)-N-(2-iso-butoxyimino-1,1-dimethyl-ethyl)-2-methylsulfanyl-acetamide] | ≥ 60 | – | – | ≥ 60 | –
8 | CON=C(C)CC(C)(C)NC(=O)C(Oc1ccc2ncc(Br)cc2c1)SC (centres unmarked) [Compound No. 104, 2-(3-Bromo-quinolin-6-yloxy)-N-(3-methoxyimino-1,1-dimethyl-butyl)-2-methylsulfanyl-acetamide] | – | ≥ 60 | – | ≥ 60 | ≥ 60
9 | CON=C(Cc1ccccn1)C(C)(C)NC(=O)C(Oc1ccc2ncc(Br)cc2c1)SC (centres unmarked) [Compound No. 127, 2-(3-Bromo-quinolin-6-yloxy)-N-{2-[(E or Z)-methoxyimino]-1,1-dimethyl-3-pyridin-2-yl-propyl}-2-methylsulfanyl-acetamide] | ≥ 60 | – | ≥ 60 | ≥ 60 | –
10 | CSC(Oc1cc(C)c2ncc(I)cc2c1)C(=O)NC(C)(C)CC=NOCc1ccccc1 (centres unmarked) [Compound No. 47, N-(3-Benzyloxyimino-1,1-dimethyl-propyl)-2-(3-iodo-8-methyl-quinolin-6-yloxy)-2-methylsulfanyl-acetamide] | ≥ 60 | – | – | ≥ 60 | –
11 | CON=CC(C)(C)NC(=O)C(Oc1ccc2ncc(C#C[Si](C)(C)C)cc2c1)SC (centres unmarked) [Compound No. 37, N-(2-methoxyimino-1,1-dimethyl-ethyl)-2-methylsulfanyl-2-(3-trimethylsilanylethynyl-quinolin-6-yloxy)-acetamide] | ≥ 60 | ≥ 60 | – | ≥ 60 | ≥ 60
12 | CCc1cc(OC(SC)C(=O)NC(C)(C)C=NOC)cc2cc(Br)cnc12 (centres unmarked) [Compound No. 133, 2-(3-Bromo-8-ethyl-quinolin-6-yloxy)-N-(2-methoxyimino-1,1-dimethyl-ethyl)-2-methylsulfanyl-acetamide] | ≥ 60 | – | – | ≥ 60 | –
13 | CCON=C(Cc1ccccn1)C(C)(C)NC(=O)C(Oc1ccc2ncc(Br)cc2c1)SC (centres unmarked) [Compound No. 128, 2-(3-Bromo-quinolin-6-yloxy)-N-{2-[(E or Z)-ethoxyimino]-1,1-dimethyl-3-pyridin-2-yl-propyl}-2-methylsulfanyl-acetamide] | ≥ 60 | – | ≥ 60 | – | –
14 | CCC(Oc1ccc2ncc(Br)cc2c1)C(=O)NC(C)(C)C=NO (centres unmarked) [Compound No. 150, 2-(3-Bromo-quinolin-6-yloxy)-N-(2-hydroxyimino-1,1-dimethyl-ethyl)-butyramide] | – | – | ≥ 60 | – | ≥ 60
15 | CCOC(=O)C(C)(C)O/N=C/C(C)(C)NC(=O)C(Oc1cc(C)c2ncc(Br)cc2c1)SC (centres unmarked) [Compound No. 24, 2-[2-[2-(3-Bromo-8-methyl-quinolin-6-yloxy)-2-methylsulfanyl-acetylamino]-2-methyl-prop-(E)-ylideneaminooxy]-2-methyl-propionic acid ethyl ester] | ≥ 60 | – | – | – | –
16 | CCON=CC(C)(C)NC(=O)C(CC)Oc1ccc2ncc(I)cc2c1 (centres unmarked) [Compound No. 3, N-(2-Ethoxyimino-1,1-dimethyl-ethyl)-2-(3-iodo-quinolin-6-yloxy)-butyramide] | ≥ 60 | ≥ 60 | – | ≥ 60 | ≥ 60
17 | C=CCON=C(Cc1ccsc1)C(C)(C)NC(=O)C(Oc1ccc2ncc(Br)cc2c1)SC (centres unmarked) [Compound No. 126, N-{2-[(E or Z)-Allyloxyimino]-1,1-dimethyl-3-thiophen-3-yl-propyl}-2-(3-bromo-quinolin-6-yloxy)-2-methylsulfanyl-acetamide] | ≥ 60 | – | – | ≥ 60 | –
18 | CSC(Oc1cc(C)c2ncc(Br)cc2c1)C(=O)NC(C)(C)C=NOC(C)(C)C (centres unmarked) [Compound No. 22, 2-(3-Bromo-8-methyl-quinolin-6-yloxy)-N-(2-tert-butoxyimino-1,1-dimethyl-ethyl)-2-methylsulfanyl-acetamide] | ≥ 60 | – | – | – | –
19 | CSC(Oc1cc(C)c2ncc(Br)cc2c1)C(=O)NC(C)(C)C=NOCc1ccccc1 (centres unmarked) [Compound No. 110, N-(2-Benzyloxyimino-1,1-dimethyl-ethyl)-2-(3-bromo-8-methyl-quinolin-6-yloxy)-2-methylsulfanyl-acetamide] | ≥ 60 | – | – | – | –
20 | CON=CC(C)(C)NC(=O)C(Cc1cc(C)c2ccsc2c1)SC (centres unmarked) [Compound No. 82, N-(2-Methoxyimino-1,1-dimethyl-ethyl)-3-(4-methyl-benzo[b]thiophen-6-yl)-2-methylsulfanyl-propionamide] | ≥ 60 | – | ≥ 60 | ≥ 60 | –
21 | C=CCON=CC(C)(C)NC(=O)C(Oc1cc(C)c2ncc(Br)cc2c1)SC (centres unmarked) [Compound No. 28, N-(2-Allyloxyimino-1,1-dimethyl-ethyl)-2-(3-bromo-8-methyl-quinolin-6-yloxy)-2-methylsulfanyl-acetamide] | ≥ 60 | – | – | ≥ 60 | –
22 | CCCCON=CC(C)(C)NC(=O)C(Oc1ccc2ncc(Br)cc2c1)SC (centres unmarked) [Compound No. 14, 2-(3-Bromo-quinolin-6-yloxy)-N-(2-butoxyimino-1,1-dimethyl-ethyl)-2-methylsulfanyl-acetamide] | – | – | ≥ 60 | ≥ 60 | ≥ 60
23 | CSC(Oc1ccc2ncc(Br)cc2c1)C(=O)NC(C)(C)C=NOC(C)(C)C (centres unmarked) [Compound No. 12, 2-(3-Bromo-quinolin-6-yloxy)-N-(2-tert-butoxyimino-1,1-dimethyl-ethyl)-2-methylsulfanyl-acetamide] | ≥ 60 | – | ≥ 60 | – | –
24 | CSC(Oc1cc(C)c2ncc(I)cc2c1)C(=O)NC(C)(C)CC=NOC(C)(C)C (centres unmarked) [Compound No. 43, N-(3-tert-Butoxyimino-1,1-dimethyl-propyl)-2-(3-iodo-8-methyl-quinolin-6-yloxy)-2-methylsulfanyl-acetamide] | ≥ 60 | – | – | – | –
25 | CON=CC(C)(C)NC(=O)C(Oc1cc(Cl)c2ncc(Br)cc2c1)SC (centres unmarked) [Compound No. 35, 2-(3-Bromo-8-chloro-quinolin-6-yloxy)-N-(2-methoxyimino-1,1-dimethyl-ethyl)-2-methylsulfanyl-acetamide] | ≥ 60 | – | ≥ 60 | – | –
26 | CCON=CC(C)(C)NC(=O)C(Oc1cc(Cl)c2ncc(Br)cc2c1)SC (centres unmarked) [Compound No. 36, 2-(3-Bromo-8-chloro-quinolin-6-yloxy)-N-(2-ethoxyimino-1,1-dimethyl-ethyl)-2-methylsulfanyl-acetamide] | ≥ 60 | ≥ 60 | – | ≥ 60 | –
27 | CSC(Oc1ccc2ncc(Br)cc2c1)C(=O)NC(C)(C)C=NOCc1ccccc1 (centres unmarked) [Compound No. 109, N-(2-Benzyloxyimino-1,1-dimethyl-ethyl)-2-(3-bromo-quinolin-6-yloxy)-2-methylsulfanyl-acetamide] | ≥ 60 | – | – | ≥ 60 | ≥ 60
28 | CCON=C(Cc1ccsc1)C(C)(C)NC(=O)C(Oc1ccc2ncc(Br)cc2c1)SC (centres unmarked) [Compound No. 125, 2-(3-Bromo-quinolin-6-yloxy)-N-{2-[(E or Z)-ethoxyimino]-1,1-dimethyl-3-thiophen-3-yl-propyl}-2-methylsulfanyl-acetamide] | ≥ 60 | – | – | ≥ 60 | –
29 | C#Cc1cnc2c(C)cc(OC(CC)C(=O)NC(C)(C)C=NOCC(C)C)cc2c1 (centres unmarked) [Compound No. 136, 2-(3-Ethynyl-8-methyl-quinolin-6-yloxy)-N-(2-isobutoxyimino-1,1-dimethyl-ethyl)-butyramide] | ≥ 60 | – | – | – | –
